Experimental data reported in PubChem BioAssay AID1918935 (Molecular Pharmacology Branch, DTP, NCI, 2023).

Test system: 324938-238-R-J1-PDC complex spheroid viability
Assay: Anticancer human tumor 324938-238-R-J1-PDC patient-derived bladder carcinoma cell line growth inhibition
Conditions: for IC50: curve of first compound; for viability, T/C: stronger effect = lower value
Method in brief: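 Complex spheroids of tumor cells with HUVEC and human MSCs, exposed to iadademstat combined with other agents. Each agent tested in half-log steps from near clinical Cmax (else 10 microM top), DMSO ≤0.25%.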

[1] = second compound 0.1 µM, first compound 0.0316 µM
[2] = second compound 0.1 µM, first compound 0.1 µM
[3] = second compound 0.1 µM, first compound 0.316 µM
[4] = second compound 0.1 µM, first compound 1 µM
[5] = second compound 0.1 µM, first compound 3.16 µM
[6] = second compound 0.1 µM, first compound 10 µM
[7] = second compound 0.316 µM, first compound 0.0316 µM
[8] = second compound 0.316 µM, first compound 0.1 µM
[9] = second compound 0.316 µM, first compound 0.316 µM
[10] = second compound 0.316 µM, first compound 1 µM
[11] = second compound 0.316 µM, first compound 3.16 µM
[12] = second compound 0.316 µM, first compound 10 µM
[13] = second compound 1 µM, first compound 0.0316 µM
[14] = second compound 1 µM, first compound 0.1 µM
[15] = second compound 1 µM, first compound 0.316 µM
[16] = second compound 1 µM, first compound 1 µM
[17] = second compound 1 µM, first compound 3.16 µM
[18] = second compound 1 µM, first compound 10 µM
[19] = second compound 3.16 µM, first compound 0.0316 µM
[20] = second compound 3.16 µM, first compound 0.1 µM
[21] = second compound 3.16 µM, first compound 0.316 µM
[22] = second compound 3.16 µM, first compound 1 µM
[23] = second compound 3.16 µM, first compound 3.16 µM
[24] = second compound 3.16 µM, first compound 10 µM
[25] = second compound 10 µM, first compound 0.0316 µM
[26] = second compound 10 µM, first compound 0.1 µM
[27] = second compound 10 µM, first compound 0.316 µM
[28] = second compound 10 µM, first compound 1 µM
[29] = second compound 10 µM, first compound 3.16 µM
[30] = second compound 10 µM, first compound 10 µM
[31] = second compound 0.1 µM, first compound 0.00949 µM
[32] = second compound 0.1 µM, first compound 0.03 µM
[33] = second compound 0.1 µM, first compound 0.0949 µM
[34] = second compound 0.1 µM, first compound 0.3 µM
[35] = second compound 0.316 µM, first compound 0.00949 µM
[36] = second compound 0.316 µM, first compound 0.03 µM
[37] = second compound 0.316 µM, first compound 0.0949 µM
[38] = second compound 0.316 µM, first compound 0.3 µM
[39] = second compound 1 µM, first compound 0.00949 µM
[40] = second compound 1 µM, first compound 0.03 µM
[41] = second compound 1 µM, first compound 0.0949 µM
[42] = second compound 1 µM, first compound 0.3 µM
[43] = second compound 3.16 µM, first compound 0.00949 µM
[44] = second compound 3.16 µM, first compound 0.03 µM
[45] = second compound 3.16 µM, first compound 0.0949 µM
[46] = second compound 3.16 µM, first compound 0.3 µM
[47] = second compound 10 µM, first compound 0.00949 µM
[48] = second compound 10 µM, first compound 0.03 µM
[49] = second compound 10 µM, first compound 0.0949 µM
[50] = second compound 10 µM, first compound 0.3 µM
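Further: spheroids also contain HUVEC and human MSCs and agents combined with iadademstat; spheroids exposed to agents for 7 days before readout.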

## CC1(C)CCC(CN2CCN(c3ccc(C(=O)NS(=O)(=O)c4ccc(NCC5CCOCC5)c([N+](=O)[O-])c4)c(Oc4cnc5[nH]ccc5c4)c3)CC2)=C(c2ccc(Cl)cc2)C1 + NC1CCC(NC2CC2c2ccccc2)CC1
Second compound 0.1 µM
  IC50: 5120 nM
Second compound 0.316 µM
  IC50: 5640 nM
Second compound 1 µM
  IC50: 4250 nM
Second compound 3.16 µM
  IC50: 4620 nM
Second compound 10 µM
  IC50: 4480 nM
[1]
  viability, T/C: 75.7%
[2]
  viability, T/C: 71.4%
[3]
  viability, T/C: 72.2%
[4]
  viability, T/C: 71%
[5]
  viability, T/C: 65.2%
[6]
  viability, T/C: 29.1%
[7]
  viability, T/C: 74.2%
[8]
  viability, T/C: 75.5%
[9]
  viability, T/C: 79.7%
[10]
  viability, T/C: 71.2%
[11]
  viability, T/C: 69.7%
[12]
  viability, T/C: 30.9%
[13]
  viability, T/C: 75.2%
[14]
  viability, T/C: 78%
[15]
  viability, T/C: 68.7%
[16]
  viability, T/C: 66.1%
[17]
  viability, T/C: 60.6%
[18]
  viability, T/C: 26.7%
[19]
  viability, T/C: 68.3%
[20]
  viability, T/C: 68%
[21]
  viability, T/C: 68.8%
[22]
  viability, T/C: 70.8%
[23]
  viability, T/C: 61.7%
[24]
  viability, T/C: 24.8%
[25]
  viability, T/C: 71.7%
[26]
  viability, T/C: 64.3%
[27]
  viability, T/C: 64.7%
[28]
  viability, T/C: 70.4%
[29]
  viability, T/C: 59.5%
[30]
  viability, T/C: 26%

## CC1COCCN1c1cc(C2(S(C)(=N)=O)CC2)nc(-c2ccnc3[nH]ccc23)n1 (stereo not given) + NC1CCC(NC2CC2c2ccccc2)CC1
Second compound 0.1 µM
  IC50: 754 nM
Second compound 0.316 µM
  IC50: 851 nM
Second compound 1 µM
  IC50: 812 nM
Second compound 3.16 µM
  IC50: 546 nM
Second compound 10 µM
  IC50: 769 nM
[1]
  viability, T/C: 91.8%
[2]
  viability, T/C: 78.1%
[3]
  viability, T/C: 62.9%
[4]
  viability, T/C: 48.9%
[5]
  viability, T/C: 24.5%
[6]
  viability, T/C: 13.3%
[7]
  viability, T/C: 93.9%
[8]
  viability, T/C: 81.1%
[9]
  viability, T/C: 72%
[10]
  viability, T/C: 43.4%
[11]
  viability, T/C: 30.4%
[12]
  viability, T/C: 15.2%
[13]
  viability, T/C: 73.1%
[14]
  viability, T/C: 77.2%
[15]
  viability, T/C: 68.8%
[16]
  viability, T/C: 43.9%
[17]
  viability, T/C: 28.5%
[18]
  viability, T/C: 16.7%
[19]
  viability, T/C: 68.8%
[20]
  viability, T/C: 80%
[21]
  viability, T/C: 57.6%
[22]
  viability, T/C: 38.1%
[23]
  viability, T/C: 25.9%
[24]
  viability, T/C: 16.5%
[25]
  viability, T/C: 77.8%
[26]
  viability, T/C: 85.7%
[27]
  viability, T/C: 66.2%
[28]
  viability, T/C: 43.7%
[29]
  viability, T/C: 28.2%
[30]
  viability, T/C: 16.8%

## CCN(c1cc(-c2ccc(CN3CCOCC3)cc2)cc(C(=O)NCc2c(C)cc(C)[nH]c2=O)c1C)C1CCOCC1 + NC1CCC(NC2CC2c2ccccc2)CC1
Second compound 0.1 µM
  IC50: > 3000 nM
Second compound 0.316 µM
  IC50: > 3000 nM
Second compound 1 µM
  IC50: > 3000 nM
Second compound 3.16 µM
  IC50: > 3000 nM
Second compound 10 µM
  IC50: > 3000 nM
[31]
  viability, T/C: 76.4%
[32]
  viability, T/C: 75.4%
[33]
  viability, T/C: 76.7%
[34]
  viability, T/C: 77.6%
Second compound 0.1 µM, first compound 0.949 µM
  viability, T/C: 75.8%
Second compound 0.1 µM, first compound 3 µM
  viability, T/C: 77.6%
[35]
  viability, T/C: 74.5%
[36]
  viability, T/C: 83.1%
[37]
  viability, T/C: 70.5%
[38]
  viability, T/C: 74.8%
Second compound 0.316 µM, first compound 0.949 µM
  viability, T/C: 80.4%
Second compound 0.316 µM, first compound 3 µM
  viability, T/C: 75.1%
[39]
  viability, T/C: 74.5%
[40]
  viability, T/C: 74.7%
[41]
  viability, T/C: 71.5%
[42]
  viability, T/C: 81%
Second compound 1 µM, first compound 0.949 µM
  viability, T/C: 72.8%
Second compound 1 µM, first compound 3 µM
  viability, T/C: 81.7%
[43]
  viability, T/C: 67.8%
[44]
  viability, T/C: 74.7%
[45]
  viability, T/C: 71.5%
[46]
  viability, T/C: 74%
Second compound 3.16 µM, first compound 0.949 µM
  viability, T/C: 72.9%
Second compound 3.16 µM, first compound 3 µM
  viability, T/C: 69%
[47]
  viability, T/C: 72.1%
[48]
  viability, T/C: 68.7%
[49]
  viability, T/C: 76.5%
[50]
  viability, T/C: 70.5%
Second compound 10 µM, first compound 0.949 µM
  viability, T/C: 66.4%
Second compound 10 µM, first compound 3 µM
  viability, T/C: 74.2%

## Nc1ncn(C2CC(O)C(CO)S2)c(=O)n1 (stereo not given) + NC1CCC(NC2CC2c2ccccc2)CC1
Second compound 0.1 µM
  IC50: 26.6 nM
Second compound 0.316 µM
  IC50: 19.9 nM
Second compound 1 µM
  IC50: 22.8 nM
Second compound 3.16 µM
  IC50: 13.1 nM
Second compound 10 µM
  IC50: 16.3 nM
Second compound 0.1 µM, first compound 0.000949 µM
  viability, T/C: 71.9%
Second compound 0.1 µM, first compound 0.003 µM
  viability, T/C: 73.7%
[31]
  viability, T/C: 62.8%
[32]
  viability, T/C: 47.2%
[33]
  viability, T/C: 34.2%
[34]
  viability, T/C: 22.8%
Second compound 0.316 µM, first compound 0.000949 µM
  viability, T/C: 74.1%
Second compound 0.316 µM, first compound 0.003 µM
  viability, T/C: 71.8%
[35]
  viability, T/C: 60.1%
[36]
  viability, T/C: 43.9%
[37]
  viability, T/C: 30.6%
[38]
  viability, T/C: 22.9%
Second compound 1 µM, first compound 0.000949 µM
  viability, T/C: 77.1%
Second compound 1 µM, first compound 0.003 µM
  viability, T/C: 64.8%
[39]
  viability, T/C: 58.3%
[40]
  viability, T/C: 49.3%
[41]
  viability, T/C: 35.6%
[42]
  viability, T/C: 23.8%
Second compound 3.16 µM, first compound 0.000949 µM
  viability, T/C: 70.6%
Second compound 3.16 µM, first compound 0.003 µM
  viability, T/C: 62.1%
[43]
  viability, T/C: 55.3%
[44]
  viability, T/C: 39.2%
[45]
  viability, T/C: 32.7%
[46]
  viability, T/C: 22.2%
Second compound 10 µM, first compound 0.000949 µM
  viability, T/C: 65.9%
Second compound 10 µM, first compound 0.003 µM
  viability, T/C: 64.3%
[47]
  viability, T/C: 51.3%
[48]
  viability, T/C: 48.1%
[49]
  viability, T/C: 29.7%
[50]
  viability, T/C: 22.3%
